The text below walks through data of article PMC2864424 (Current Chemical Genomics, 2010).

Data set [1] deals with OATP1B3. Conditions: read-out: IC50, inhibition of bosentan transport, OATP1B3; ref Treiber et al. 5; cited from earlier work.
Data set [2] concerns OATP1B3. The note with it: read-out: Ki, inhibition of fexofenadine transport, OATP1B3; cited from earlier work.
The test system of data set [3] is OATP1B3. Conditions: read-out: IC50, inhibition of Ro 48-5033 uptake, OATP1B3; ref Treiber et al. 5; cited from earlier work.
The test system of data set [4] is OATP1B1. The note with it: read-out: Ki, inhibition of fexofenadine transport, OATP1B1; cited from earlier work.
The test system of data set [5] is OATP1B1. Conditions: read-out: IC50, inhibition of Ro 48-5033 uptake, OATP1B1; ref Treiber et al. 5; cited from earlier work.
Data set [6] deals with OATP1B3. The note with it: read-out: Ki, inhibition of BSP transport, OATP1B3; cited from earlier work.
The subject of data set [7] is OATP1B1. The note with it: read-out: IC50, inhibition of bosentan transport, OATP1B1; ref Treiber et al. 5; cited from earlier work.
In data set [8] the test system is OATP1B1. The note with it: read-out: Ki, inhibition of BSP transport, OATP1B1; cited from earlier work.
Data set [9] relates to OATP1B1 and OATP1B3 (not distinguished). The format is cell-based, human. Conditions: human, CHO cells stably expressing OATP1B1 or OATP1B3, pH 7.4, probe FMTX, 5 µM.
In the next data set the test system is OATP1B1 and OATP1B3. The format is cell-based, human. The note with it: primary screen of FMTX uptake by OATP1B1 or OATP1B3.
In data set [10] the test system is OATP1B1. The note with it: cited from earlier work.
Data set [11] relates to OATP1B3. The note with it: concentrations up to 10 μM; cited from earlier work.

Where two headings read alike, the source gives them in different places.

Broadly, the IC50 is the concentration at which inhibition is half-maximal. A word on the Ki: it is the dissociation constant of the complex between target and ligand, obtained from inhibition or displacement.

`CO[C@H]1/C=C/O[C@@]2(C)Oc3c(C)c(O)c4c(O)c(c(/C=N/N5CCN(C)CC5)c(O)c4c3C2=O)NC(=O)/C(C)=C\C=C\[C@H](C)[C@H](O)[C@@H](C)[C@@H](O)[C@@H](C)[C@H](OC(C)=O)[C@@H]1C` [Rifampicin]: the IC50 in the data set on OATP1B3 [1] was 1600 nM; in the data set on OATP1B3 [3] it was 800 nM; in the data set on OATP1B1 [5], ~50000 nM; in the data set with OATP1B1 [7] it was 3200 nM. Also, the Ki with OATP1B3 [2] is 1500 nM; in the data set with OATP1B1 [4], 500 nM; in the data set with OATP1B3 [6] it was 5000 nM; with OATP1B1 [8], 17000 nM. The compound further registered an IC50 at 30 min in [9] of 1300 to 1500 nM. Moreover, the “Prestwick library screening result” value in the data set with OATP1B1 and OATP1B3 is “strongest inhibitors”.
`CC1(C)C(/C=C/C=C/C=C/C=C2\N(CCCCS(=O)(=O)O)c3ccc4ccccc4c3C2(C)C)=[N+](CCCCS(=O)(=O)[O-])c2ccc3ccccc3c21` [indocyanine green]: the “effect on OATP1B1-mediated estradiol-17β-glucuronide transport” value in the data set with OATP1B1 [10] was “specific inhibitor”. Also, the “effect on OATP1B3-mediated estradiol-17β-glucuronide transport” value in the data set with OATP1B3 [11] was “not affecting”.
